Measurements as given in patent US8329683B2 (Nexgenix Pharmaceuticals, LLC, priority 2006, dated 2012).
pIC50: −log10 of the molar value. Read-outs that look alike come from different tables or passages of the source.

How the values were obtained:
HSP90 = HSP90 affinity in a competition assay with geldanamycin; type: binding
[1] = rcm bond, 14-membered ring, Grubbs II (10 mol%), toluene, 2.0 mM, 80.0 °C
[2] = cited from earlier work
[3] = toluene
ErbB2 = test: Western blot of ErbB2 in NF2-deficient cells; type: cell-based, mouse and human; conditions: NF2-deficient cells (Nf2-/- mouse Schwann, meningioma, mesothelioma); dose- and time-dependent
From the text: (§1) It has been shown that inhibition of HSP90 function in breast cancer cells causes down-regulation of Akt (Basso et al., 2002, J. Biol. Chem. 277(42): 39858-39866). The inventors of the present invention have determined that phospho-Akt levels are elevated in Nf1−/− mouse Schwann cells, NF2 defient human schwannomas, NF2-deficient meningioma xenografts, NF2-deficient mesothelioma xenografts as compared to wild-type mouse Schwann cells and/or normal human peripheral nerves (reference is made to PCT/US2007/70366 application entitled “Treatment of Neurofibromatosis with Inhibitors of a Signal Transduction Pathway,” filed on Jun. 4, 2007, which is herein incorporated by reference in its entirety). To assess the effect of HSP90 inhibitors on phospho-Akt in NF2 deficient cells, Western blots were prepared from Nf2−/− mouse Schwann cells as an example. The cells were treated with 0.02 μM, 0.5 μM NXD30001 for 24 hours. […]
(§2) To assess the effect of the compounds of the present invention on ErbB2 and c-Raf in NF2-deficient cells, Western blots were prepared from various NF2-deficient cells, including Nf2−/− mouse Schwann cells, NF2-deficient meningioma cells, and NF2-deficient mesothelioma cells. […] The inventors of the present invention have determined that treatment of NF2-deficient cells with NXD30001 caused a decline of both ErbB2 and c-Raf levels (FIG. 1A). […]

phospho-Akt = test: Western blot of phospho-Akt in Nf2-/- mouse Schwann cells; type: cell-based; conditions: 0.02 μM, 0.5 μM, 24 hours, dose- and time-dependent
From the text: (§3) It has been shown that inhibition of HSP90 function in breast cancer cells causes down-regulation of Akt (Basso et al., 2002, J. Biol. Chem. 277(42): 39858-39866). The inventors of the present invention have determined that phospho-Akt levels are elevated in Nf1−/− mouse Schwann cells, NF2 defient human schwannomas, NF2-deficient meningioma xenografts, NF2-deficient mesothelioma xenografts as compared to wild-type mouse Schwann cells and/or normal human peripheral nerves (reference is made to PCT/US2007/70366 application entitled “Treatment of Neurofibromatosis with Inhibitors of a Signal Transduction Pathway,” filed on Jun. 4, 2007, which is herein incorporated by reference in its entirety). To assess the effect of HSP90 inhibitors on phospho-Akt in NF2 deficient cells, Western blots were prepared from Nf2−/− mouse Schwann cells as an example. The cells were treated with 0.02 μM, 0.5 μM NXD30001 for 24 hours. As control the same cells were treated with vehicle DMSO for 24 hours. […] The loss of phospho-Akt was both dose- and time-dependent.

c-Raf [4] = test: Western blot of c-Raf in NF2-deficient cells; type: cell-based, mouse and human; conditions: NF2-deficient cells (Nf2-/- mouse Schwann, meningioma, mesothelioma); dose- and time-dependent
From the text: as §1, §2

[5] = test system: NF1- and NF2-deficient human and mouse cells; test: Cell proliferation assay (ATPlite); type: cell-based; conditions: 3 days culture; IC50 values only in FIG. 3
Procedure: Inhibitors of HSP90 function is assayed for the ability to decrease the number of NF2 deficient tumor cells in a tumor, i.e., shrink a tumor, or reduce the proliferation of NF2 deficient tumor cells. The ability of inhibitors to decrease the number of NF2 deficient tumor cells in a sample or reduce proliferation of NF2 deficient tumor cells is assessed using a variety of methods known in the art. A small library of compounds of the present invention (total 14 oxime compounds) were assayed for inhibition of proliferation of NF1- and NF2-deficient cells. Cells used are Nf2−/− mouse embryonic stem cell (MESC), NF2-deficient human SF1335 meningioma cells, NF2-deficient HEI193 schwanoma cells, NF2-deficient BAR and RAV mesothelioma cells, NF2-plus BLA mesothelioma cells, and NF1-deficient human malignant peripheral nerve sheath tumor (MPNST) cells. Appropriate number of cells that can reach ˜70% confluence in 3 days (2000-6000 cells/well) were plated in 96-well plates. Various concentrations of each compound were added to the growing media and the cells were then cultured for 3 days. A positive control compound (17-AAG) and a vehicle (DMSO) control were included with each assay. […] Viable cells were measured by detecting luminescence generated from reaction of ATPlite solution and the ATP in the cells.

Cdk4 = test: Immunoblot of client protein degradation in ST88-14 MPNST cells; type: cell-based, human; conditions: ST88-14 cells, 24 hr treatment, 8-1000 nM; read-out: IC50 of induced degradation of Cdk4
Procedure: (§4) Ras-Raf-Mek-Erk1/2 pathway is activated due to the loss of NF1 in these cells. In addition, EGFR is overexpressed in a number of NF1-deficient human and mouse cells. Human malignant peripheral nerve sheath tumor (MPNST) cell ST88-14 was treated with increasing concentration (8-1000 nM) of NXD30001 for 24 hr. Cells were lysed and clarified lysates were subjected SDS-PAGE, followed by immunoblot analysis using indicated antibodies. […] Equal lysate protein loading is shown by actin immunoblot.

Akt = test: as above; type: cell-based, human; conditions: ST88-14 cells, 24 hr treatment, 8-1000 nM; read-out: IC50 of induced degradation of Akt
Procedure: as §4

c-Raf [6] = test: as above; type: cell-based, human; conditions: ST88-14 cells, 24 hr treatment, 8-1000 nM; read-out: IC50 of induced degradation of c-Raf
Procedure: as §4

EGFR = test: as above; type: cell-based, human; conditions: ST88-14 cells, 24 hr treatment, 8-1000 nM; read-out: IC50 of induced degradation of EGFR
Procedure: as §4

HSP70 = test: Western blot of HSP70 in NF2-deficient cells; type: cell-based, mouse and human; conditions: dose-dependent
From the text: as §3
To assess the effect of the compounds of the present invention on HSP70 in NF2-deficient cells, Western blots were prepared from various NF2-deficient cells, including […], NF2-deficient schwannoma cells, NF2-deficient meningioma cells, and NF2-deficient mesothelioma cells. […]

In the case of `C[C@@H]1C/C=C/CC/C=C/C(=O)Cc2c(Cl)c(O)cc(O)c2C(=O)O1` [pochonin D], the pIC50 (HSP90) was 7.10.
Molecule `CCOCOc1cc2c(c(OCOCC)c1)C(=O)OC(C)CC=CCCC=CC(=O)C2` (stereo not shown) has a ring closure, isolated yield ([1]; 2 steps) of 40%.
For `C[C@@H]1C[C@H]2O[C@@H]2/C=C\C=C\C(=O)Cc2c(Cl)c(O)cc(O)c2C(=O)O1` [radicicol, Radicicol, reference compound], the “in vivo anti-tumor activity” value [2] is listed as “no in vivo anti-tumor activity”.
`CCOCOc1cc(OCOCC)c2c(c1Cl)CC(=O)C=CCCC=CC[C@@H](C)OC2=O` showed a ring closure, yield of all isomers ([3]; from C=CCCC=CC(=O)Cc1c(Cl)c(OCOCC)cc(OCOCC)c1C(=O)O[C@H](C)CC=C, rcm bond, Grubbs II, 2.0 mM, 80.0 °C) of 94%.
In the case of `CCOCOc1cc(OCOCC)c2c(c1Cl)CC(=NOCC(=O)N1CCCCC1)C=CCCC=CCCOC2=O`, the ring closure, yield of all isomers ([3]; from CCOCOc1cc(OCOCC)c(C(=O)O)c(CC(C=CCCC=CCCO)=NOCC(=O)N2CCCCC2)c1Cl, ester bond, PPh3/DIAD, 30.9 mM, 23.0 °C, 5.0 h) was 60%.
In the case of `CCOCOc1cc2c(c(OCOCC)c1)C(=O)O[C@H](C)CC=CCCC=CC(=O)C2`, the ring closure, yield of all isomers ([3]; from C=CCCC=CC(=O)Cc1cc(OCOCC)cc(OCOCC)c1C(=O)O[C@H](C)CC=C, rcm bond, Grubbs II, 2.0 mM, 80.0 °C, 2 steps) was 40%.
In the case of `C[C@@H]1CC=CCC/C=C/C(=O)Cc2c(Cl)c(O[Si](C)(C)C(C)(C)C)cc(O[Si](C)(C)C(C)(C)C)c2C(=O)O1`, the ring closure, yield of all isomers ([3]; from C=CCC/C=C/C(=O)Cc1c(Cl)c(O[Si](C)(C)C(C)(C)C)cc(O[Si](C)(C)C(C)(C)C)c1C(=O)O[C@H](C)CC=C, rcm bond, Grubbs II, 2.0 mM, 80.0 °C, 12.0 h) was 87%.
With `CCOCOc1cc(OCOCC)c2c(c1Cl)CC(=O)C=CCCC=CCC(C)OC2=O` (stereo not shown) the ring closure, isolated yield [1] was 94%.
In the case of `O=C1OCC/C=C/CC/C=C/C(=N/OCC(=O)N2CCCCC2)Cc2c(Cl)c(O)cc(O)c21` [NXD30001], the ErbB2 levels (ErbB2) was “decline”, the phospho-Akt levels (phospho-Akt) was “decline of phospho-Akt levels” and the c-Raf levels (c-Raf [4]) was “decline”. For the same molecule, the “inhibition of cell proliferation” value [5] was “Inhibit Proliferation”, the pIC50 (Cdk4) was ~7.00 and the pIC50 (Akt) was ~7.00. The pIC50 (c-Raf [6]) was ~7.00, the pIC50 (EGFR) was ~7.00 and the HSP70 protein level (HSP70) was “upregulation of HSP70”.
`C[C@@H]1CC=CCC/C=C/C(=O)Cc2c(Cl)c(OCOCC[Si](C)(C)C)cc(OCOCC[Si](C)(C)C)c2C(=O)O1` showed a ring closure, yield of all isomers ([3]; from C=CCC/C=C/C(=O)Cc1c(Cl)c(OCOCC[Si](C)(C)C)cc(OCOCC[Si](C)(C)C)c1C(=O)O[C@H](C)CC=C, rcm bond, Grubbs II, 2.0 mM, 80.0 °C, 12.0 h) of 87%.
Molecule `C[C@@H]1CC2O[C@@H]2CC/C=C/C(=O)Cc2c(Cl)c(O)cc(O)c2C(=O)O1` (stereo partly shown) [pochonin A] has a pIC50 (HSP90) of 7.05.
